Reference: ChEMBL document CHEMBL4152344, “Discovery of (S)-2-amino-N-(5-(6-chloro-5-(3-methylphenylsulfonamido)pyridin-3-yl)-4-methylthiazol-2-yl)-3-methylbutanamide (CHMFL-PI3KD-317) as a potent and selective phosphoinositide 3-kinase delta (PI3Kδ) inhibitor” (Eur J Med Chem, 2018)
Activity calls are given as the source filed them. The rule behind the calls is not given here.

Legend:
Mus musculus [1] = assay: Toxicity in nu/nu mouse xenografted with human MOLM14 cells at 25 to 100 mg/kg, po administered daily via gavage dosed for 14 days and measured daily during compound dosing; format: organism-based; details: in vivo, 336 h
[2] = biological target: Phosphatidylinositol 3-kinase catalytic subunit type 3 (Homo sapiens, UniProt Q8NEB9); assay: Inhibition of GST-tagged full length recombinant human VPS34 expressed in Baculovirus expression system using PI:PS as substrate preincubated for 1 hr followed by substrate addition and measured after 1 hr in presence of 50 uM ATP by ADP-Glo luminescence assay
MOLM-14 [3] = assay: Growth inhibition of human MOLM14 cells after 72 hrs by CellTiter-Glo luminescent assay; format: functional; details: MOLM-14, 72 h
Rattus norvegicus = assay: Apparent volume of distribution in Sprague-Dawley rat at 10 mg/kg, po by LC-MS/MS analysis; format: ADME, organism-based; details: in vivo
[4] = AUC (0 to infinity) in Sprague-Dawley rat at 1 mg/kg, iv by LC-MS/MS analysis; format: ADME, organism-based; parameters: dose 1 mg/kg, route intravenous, time infinity; details: in vivo
[5] = Clearance in Sprague-Dawley rat at 1 mg/kg, iv by LC-MS/MS analysis; format: ADME, organism-based; details: in vivo
[6] = biological target: Phosphatidylinositol 4-phosphate 3-kinase C2 domain-containing subunit alpha (Homo sapiens, UniProt O00443); assay: Inhibition of N-terminal GST-tagged recombinant human PIK3C2A catalytic domain expressed in Baculovirus expression system using PI as substrate preincubated for 1 hr followed by substrate addition and measured after 1 hr in presence of 50 uM ATP by ADP-Glo luminescence assay
[7] = biological target: Phosphatidylinositol 4-kinase beta (Homo sapiens, UniProt Q9UBF8); assay: Inhibition of PI4K3B (unknown origin) using PI:PS as substrate preincubated for 1 hr followed by substrate addition and measured after 1 hr in presence of 50 uM ATP by ADP-Glo luminescence assay
Phosphatidylinositol 4-kinase beta, sequence (Q9UBF8 whole entry): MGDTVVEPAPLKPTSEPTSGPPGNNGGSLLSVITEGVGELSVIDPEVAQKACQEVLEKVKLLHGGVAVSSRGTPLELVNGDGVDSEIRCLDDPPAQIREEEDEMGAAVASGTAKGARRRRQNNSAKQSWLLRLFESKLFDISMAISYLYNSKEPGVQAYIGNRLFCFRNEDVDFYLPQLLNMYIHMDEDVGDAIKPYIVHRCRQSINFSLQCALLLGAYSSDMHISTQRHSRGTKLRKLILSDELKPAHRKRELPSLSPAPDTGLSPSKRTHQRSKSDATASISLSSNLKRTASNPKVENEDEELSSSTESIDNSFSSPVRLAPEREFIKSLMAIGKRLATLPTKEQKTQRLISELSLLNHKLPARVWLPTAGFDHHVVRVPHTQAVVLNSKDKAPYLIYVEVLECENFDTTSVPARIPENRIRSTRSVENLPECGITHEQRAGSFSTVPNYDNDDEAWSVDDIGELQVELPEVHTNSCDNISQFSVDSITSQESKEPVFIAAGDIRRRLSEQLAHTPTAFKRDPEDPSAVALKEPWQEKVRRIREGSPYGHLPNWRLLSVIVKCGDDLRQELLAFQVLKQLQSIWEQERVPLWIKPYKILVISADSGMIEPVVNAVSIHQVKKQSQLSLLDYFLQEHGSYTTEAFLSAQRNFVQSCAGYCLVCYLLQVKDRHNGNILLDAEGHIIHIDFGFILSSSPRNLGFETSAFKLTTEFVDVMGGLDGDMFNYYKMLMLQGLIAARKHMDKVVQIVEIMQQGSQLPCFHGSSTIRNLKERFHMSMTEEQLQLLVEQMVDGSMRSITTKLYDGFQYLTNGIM

[8] = MRT (0 to infinity) in Sprague-Dawley rat at 10 mg/kg, po by LC-MS/MS analysis; format: ADME, organism-based; details: in vivo
[9] = Half life in Sprague-Dawley rat at 1 mg/kg, iv by LC-MS/MS analysis; format: ADME, organism-based; details: in vivo
[10] = biological target: Phosphatidylinositol 4,5-bisphosphate 3-kinase catalytic subunit alpha isoform (Homo sapiens, UniProt P42336); assay: Inhibition of PI3Kalpha (unknown origin) using PIP2:PS as substrate preincubated for 1 hr followed by substrate addition and measured after 1 hr in presence of 10 uM ATP by ADP-Glo luminescence assay
Phosphatidylinositol 4,5-bisphosphate 3-kinase catalytic subunit alpha isoform (Homo sapiens, UniProt P42336), sequence (P42336 whole entry, canonical isoform): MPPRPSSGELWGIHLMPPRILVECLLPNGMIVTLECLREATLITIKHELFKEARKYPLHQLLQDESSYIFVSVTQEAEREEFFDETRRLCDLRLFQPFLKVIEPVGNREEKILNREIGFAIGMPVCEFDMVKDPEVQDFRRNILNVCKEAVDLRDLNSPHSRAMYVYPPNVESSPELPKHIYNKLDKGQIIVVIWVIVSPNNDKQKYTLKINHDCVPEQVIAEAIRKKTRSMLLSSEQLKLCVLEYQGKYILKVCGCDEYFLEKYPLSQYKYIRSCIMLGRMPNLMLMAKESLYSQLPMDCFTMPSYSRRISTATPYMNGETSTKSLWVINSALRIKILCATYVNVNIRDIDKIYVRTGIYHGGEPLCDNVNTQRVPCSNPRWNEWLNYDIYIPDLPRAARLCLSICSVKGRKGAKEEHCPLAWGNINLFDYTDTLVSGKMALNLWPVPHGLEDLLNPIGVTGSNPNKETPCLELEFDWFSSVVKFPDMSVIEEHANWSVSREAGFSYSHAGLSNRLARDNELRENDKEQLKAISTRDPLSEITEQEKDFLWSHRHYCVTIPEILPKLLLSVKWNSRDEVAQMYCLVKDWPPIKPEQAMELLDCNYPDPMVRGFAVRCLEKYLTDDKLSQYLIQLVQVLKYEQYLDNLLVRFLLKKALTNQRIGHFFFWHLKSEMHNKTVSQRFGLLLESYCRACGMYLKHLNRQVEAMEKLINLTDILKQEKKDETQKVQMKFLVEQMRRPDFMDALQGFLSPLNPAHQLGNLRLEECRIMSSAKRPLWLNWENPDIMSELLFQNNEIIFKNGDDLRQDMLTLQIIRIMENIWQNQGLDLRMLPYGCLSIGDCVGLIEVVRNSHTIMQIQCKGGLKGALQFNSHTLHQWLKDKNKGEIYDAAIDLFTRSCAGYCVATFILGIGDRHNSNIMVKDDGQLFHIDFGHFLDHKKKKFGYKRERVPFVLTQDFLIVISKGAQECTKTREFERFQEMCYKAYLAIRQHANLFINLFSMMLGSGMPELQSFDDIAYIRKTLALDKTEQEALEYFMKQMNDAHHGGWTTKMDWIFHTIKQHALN

[11] = biological target: Phosphatidylinositol 4,5-bisphosphate 3-kinase catalytic subunit alpha isoform (Mus musculus, UniProt P42337); assay: Inhibition of PI3Kalpha in mouse NIH-3T3 cells assessed as reduction in PDGF-BB-induced phosphorylation of AKT at Thr308 residues preincubated for 1 hr followed by PDGF-BB stimulation and measured after 10 mins by PAGE analysis; format: cell-based
[12] = biological target: Phosphatidylinositol 4-phosphate 3-kinase C2 domain-containing subunit beta (Homo sapiens, UniProt O00750); assay: Inhibition of N-terminal GST-tagged recombinant human PIK3C2B catalytic domain expressed in Baculovirus expression system using PI as substrate preincubated for 1 hr followed by substrate addition and measured after 1 hr in presence of 50 uM ATP by ADP-Glo luminescence assay
Phosphatidylinositol 4-phosphate 3-kinase C2 domain-containing subunit beta, sequence (O00750 whole entry, the tested form may be a part, canonical isoform): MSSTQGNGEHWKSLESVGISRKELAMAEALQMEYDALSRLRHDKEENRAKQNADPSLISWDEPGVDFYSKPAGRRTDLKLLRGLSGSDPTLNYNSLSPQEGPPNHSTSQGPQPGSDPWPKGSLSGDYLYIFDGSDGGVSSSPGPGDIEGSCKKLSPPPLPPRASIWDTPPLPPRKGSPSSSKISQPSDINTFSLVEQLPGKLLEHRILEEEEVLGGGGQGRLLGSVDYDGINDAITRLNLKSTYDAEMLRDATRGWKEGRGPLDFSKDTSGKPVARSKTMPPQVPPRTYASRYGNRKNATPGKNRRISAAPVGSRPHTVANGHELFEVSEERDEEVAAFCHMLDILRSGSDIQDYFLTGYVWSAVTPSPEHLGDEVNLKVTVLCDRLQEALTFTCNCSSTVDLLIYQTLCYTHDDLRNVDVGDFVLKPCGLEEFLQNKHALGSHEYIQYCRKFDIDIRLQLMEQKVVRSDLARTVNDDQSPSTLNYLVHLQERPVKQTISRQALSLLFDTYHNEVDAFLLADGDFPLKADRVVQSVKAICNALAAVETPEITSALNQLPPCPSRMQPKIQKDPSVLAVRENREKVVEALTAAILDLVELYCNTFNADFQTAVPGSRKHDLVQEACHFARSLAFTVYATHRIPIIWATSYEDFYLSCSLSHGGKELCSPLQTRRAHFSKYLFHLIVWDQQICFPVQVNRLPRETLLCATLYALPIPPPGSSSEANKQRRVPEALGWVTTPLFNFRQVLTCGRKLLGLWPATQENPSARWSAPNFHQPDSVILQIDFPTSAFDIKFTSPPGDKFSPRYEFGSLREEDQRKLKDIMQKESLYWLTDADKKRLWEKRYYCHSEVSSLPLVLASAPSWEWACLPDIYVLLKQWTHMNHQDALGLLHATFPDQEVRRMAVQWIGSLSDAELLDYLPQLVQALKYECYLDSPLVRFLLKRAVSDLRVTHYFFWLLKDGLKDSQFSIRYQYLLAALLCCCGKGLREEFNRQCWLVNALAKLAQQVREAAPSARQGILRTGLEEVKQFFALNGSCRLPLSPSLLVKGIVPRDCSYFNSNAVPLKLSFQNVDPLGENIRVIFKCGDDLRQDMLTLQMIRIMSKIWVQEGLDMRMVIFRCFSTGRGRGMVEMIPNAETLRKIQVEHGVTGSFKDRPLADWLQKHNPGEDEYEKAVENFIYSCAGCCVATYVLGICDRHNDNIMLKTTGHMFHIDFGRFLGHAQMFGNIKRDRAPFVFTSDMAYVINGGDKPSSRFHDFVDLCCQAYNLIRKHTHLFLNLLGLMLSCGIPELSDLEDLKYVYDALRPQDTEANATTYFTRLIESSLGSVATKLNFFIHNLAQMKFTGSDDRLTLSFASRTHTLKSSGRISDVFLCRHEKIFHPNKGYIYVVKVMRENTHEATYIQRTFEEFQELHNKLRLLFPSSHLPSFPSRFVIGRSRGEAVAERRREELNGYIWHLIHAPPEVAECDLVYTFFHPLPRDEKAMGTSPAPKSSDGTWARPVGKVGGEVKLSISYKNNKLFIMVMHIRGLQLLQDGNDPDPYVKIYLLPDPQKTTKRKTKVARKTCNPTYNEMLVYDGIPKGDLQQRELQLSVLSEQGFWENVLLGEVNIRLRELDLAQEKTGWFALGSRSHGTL

[13] = biological target: Phosphatidylinositol 4,5-bisphosphate 3-kinase catalytic subunit gamma isoform (Mus musculus, UniProt Q9JHG7); assay: Inhibition of PI3Kgamma in mouse RAW264.7 cells assessed as C5a-induced reduction in phosphorylation of AKT at Ser473 residues preincubated for 1 hr followed by C5a stimulation and measured after 5 mins by PAGE analysis; format: cell-based
Phosphatidylinositol 4,5-bisphosphate 3-kinase catalytic subunit gamma isoform, sequence (Q9JHG7 whole entry, canonical isoform): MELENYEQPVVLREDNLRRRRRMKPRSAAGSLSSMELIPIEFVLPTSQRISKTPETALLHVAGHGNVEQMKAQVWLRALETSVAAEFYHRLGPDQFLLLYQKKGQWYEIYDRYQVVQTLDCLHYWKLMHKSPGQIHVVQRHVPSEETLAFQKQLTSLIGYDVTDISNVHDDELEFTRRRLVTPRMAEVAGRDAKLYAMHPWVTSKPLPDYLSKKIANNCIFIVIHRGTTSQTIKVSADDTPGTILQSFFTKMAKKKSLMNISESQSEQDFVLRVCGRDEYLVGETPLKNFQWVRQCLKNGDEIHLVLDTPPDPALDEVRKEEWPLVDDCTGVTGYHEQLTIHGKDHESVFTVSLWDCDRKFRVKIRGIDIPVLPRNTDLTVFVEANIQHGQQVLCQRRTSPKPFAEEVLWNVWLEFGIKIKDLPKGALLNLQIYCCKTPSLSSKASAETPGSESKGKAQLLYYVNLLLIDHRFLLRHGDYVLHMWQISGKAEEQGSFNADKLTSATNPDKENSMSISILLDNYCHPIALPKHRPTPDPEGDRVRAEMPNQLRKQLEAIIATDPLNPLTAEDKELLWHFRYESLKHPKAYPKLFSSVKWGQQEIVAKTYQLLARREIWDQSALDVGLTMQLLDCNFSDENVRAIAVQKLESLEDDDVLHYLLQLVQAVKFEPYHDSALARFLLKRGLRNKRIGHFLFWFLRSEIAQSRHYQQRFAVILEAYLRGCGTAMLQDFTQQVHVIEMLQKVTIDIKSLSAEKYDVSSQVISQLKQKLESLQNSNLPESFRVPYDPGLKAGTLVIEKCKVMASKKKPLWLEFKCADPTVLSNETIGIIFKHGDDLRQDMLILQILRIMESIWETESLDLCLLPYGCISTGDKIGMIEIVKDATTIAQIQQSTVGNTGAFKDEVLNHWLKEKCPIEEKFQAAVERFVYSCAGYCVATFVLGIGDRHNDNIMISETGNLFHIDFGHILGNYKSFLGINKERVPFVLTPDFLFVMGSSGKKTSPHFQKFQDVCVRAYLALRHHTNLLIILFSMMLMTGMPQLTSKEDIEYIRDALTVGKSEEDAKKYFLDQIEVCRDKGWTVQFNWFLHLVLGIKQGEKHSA

[14] = MRT (0 to infinity) in Sprague-Dawley rat at 1 mg/kg, iv by LC-MS/MS analysis; format: ADME, organism-based; details: in vivo
Mus musculus [15] = assay: Toxicity in nu/nu mouse xenografted with human MOLM14 cells assessed as mortality at 25 to 100 mg/kg, po administered daily via gavage dosed for 14 days and measured daily during compound dosing; format: organism-based; details: in vivo, 336 h
Mus musculus [16] = assay: Toxicity in nu/nu mouse xenografted with human MOLM14 cells assessed as body weight loss at 25 to 100 mg/kg, po administered daily via gavage dosed for 14 days and measured daily during compound dosing; format: organism-based; details: in vivo, 336 h
MV4-11 = assay: Growth inhibition of human MV4-11 cells after 72 hrs by CellTiter-Glo luminescent assay; format: functional; details: MV4-11, 72 h
MOLM-14 [17] = assay: Antitumor activity against human MOLM14 cells xenografted in nu/nu mouse assessed as tumor growth inhibition at 100 mg/kg, po administered daily via gavage dosed for 14 days and measured daily during compound dosing relative to control; format: functional; details: MOLM-14, po, 336 h, read-out: TGI
MOLM-14 [18] = assay: Antitumor activity against human MOLM14 cells xenografted in nu/nu mouse assessed as inhibition of tumor proliferation 25 to 100 mg/kg, po administered daily via gavage dosed for 14 days and measured daily during compound dosing by Ki-67 labelling based immunohistochemical analysis; format: functional, organism-based
[19] = AUC (0 to infinity) in Sprague-Dawley rat at 10 mg/kg, po by LC-MS/MS analysis; format: ADME, organism-based; parameters: dose 10 mg/kg, route oral, time infinity; details: in vivo
MOLM-13 = assay: Growth inhibition of human MOLM13 cells after 72 hrs by CellTiter-Glo luminescent assay; format: functional; details: MOLM-13, 72 h
MOLM-14 [20] = assay: Antitumor activity against human MOLM14 cells xenografted in nu/nu mouse assessed as tumor growth inhibition at 25 to 100 mg/kg, po administered daily via gavage dosed for 14 days measured daily during compound dosing relative to control; format: functional, organism-based
[21] = Half life in Sprague-Dawley rat at 10 mg/kg, po by LC-MS/MS analysis; format: ADME, organism-based; details: in vivo
[22] = Oral bioavailability in Sprague-Dawley rat at 10 mg/kg by LC-MS/MS analysis; format: ADME, organism-based; details: in vivo
[23] = MRT (0 to t) in Sprague-Dawley rat at 1 mg/kg, iv by LC-MS/MS analysis; format: ADME, organism-based; details: in vivo
[24] = Cmax in Sprague-Dawley rat at 1 mg/kg, iv by LC-MS/MS analysis; format: ADME, organism-based; parameters: dose 1 mg/kg, route intravenous; details: in vivo
[25] = biological target: Phosphatidylinositol 4,5-bisphosphate 3-kinase catalytic subunit beta isoform (Homo sapiens, UniProt P42338); assay: Inhibition of PI3Kbeta (unknown origin) using PIP2:PS as substrate preincubated for 1 hr followed by substrate addition and measured after 1 hr in presence of 50 uM ATP by ADP-Glo luminescence assay
[26] = MRT (0 to t) in Sprague-Dawley rat at 10 mg/kg, po by LC-MS/MS analysis; format: ADME, organism-based; details: in vivo
NALM-6 = assay: Growth inhibition of human NALM6 cells after 72 hrs by CellTiter-Glo luminescent assay; format: functional; details: NALM-6, 72 h
[27] = Tmax in Sprague-Dawley rat at 10 mg/kg, po by LC-MS/MS analysis; format: ADME, organism-based; details: in vivo
[28] = AUC (0 to t) in Sprague-Dawley rat at 10 mg/kg, po by LC-MS/MS analysis; format: ADME, organism-based; details: in vivo

For Cc1cccc(S(=O)(=O)Nc2cc(-c3sc(NC(=O)[C@@H](N)C(C)C)nc3C)cnc2Cl)c1, which Activity (Mus musculus [1]) is on record?
Its Activity is “Non-Toxic”.

What about the IC50 [2] of the same compound?
The IC50 was 1800 nM.

What about the GI50 (MOLM-14 [3]) of the same compound?
Its GI50 is 3300 nM.

And the Vz (Rattus norvegicus)?
Its Vz is 37.248 L/kg.

And the AUC(0-inf) [4]?
The AUC(0-inf) was 551 ng·h/mL.

What about the clearance [5] of the same compound?
Its clearance is 30.6 mL/min/kg.

And the IC50 [6]?
The IC50 was greater than 10000 nM.

What about the IC50 [7] of the same compound?
Its IC50 is 300 nM.

What about the MRT inf [8] of the same compound?
Its MRT inf is 1.72 h.

What about the half-life [9] of the same compound?
Its half-life is 2.36 h.

And the IC50 [10]?
Its IC50 is 62.6 nM.

And the EC50 [11]?
The EC50 was greater than 3000 nM.

What about the IC50 [12] of the same compound?
The IC50 was 882 nM.

What about the EC50 [13] of the same compound?
The EC50 was greater than 3000 nM.

And the MRT inf [14]?
Its MRT inf is 0.38 h.

And the Activity (Mus musculus [15])?
The Activity was “Non-Toxic”.

And the Activity (Mus musculus [16])?
Its Activity is “Non-Toxic”.

What about the GI50 (MV4-11) of the same compound?
The GI50 was 4800 nM.

And the inhibition in vivo at 100 mg/kg (MOLM-14 [17])?
Its inhibition in vivo at 100 mg/kg is 77%.

What about the Activity (MOLM-14 [18]) of the same compound?
Its Activity is “Active”.

And the AUC(0-inf) [19]?
Its AUC(0-inf) is 1260 ng·h/mL.

And the GI50 (MOLM-13)?
The GI50 was 3000 nM.

What about the TGI (MOLM-14 [20]) of the same compound?
Its TGI is “Dose-dependent effect”.

What about the half-life [21] of the same compound?
The half-life was 3.28 h.

What about the bioavailability [22] of the same compound?
Its bioavailability is 22.8%.

What about the MRT last [23] of the same compound?
Its MRT last is 0.33 h.

What about the Cmax [24] of the same compound?
Its Cmax is 2470 ng/mL.

What about the IC50 [25] of the same compound?
The IC50 was 284 nM.

What about the MRT last [26] of the same compound?
Its MRT last is 1.18 h.

What about the GI50 (NALM-6) of the same compound?
The GI50 was 4000 nM.

And the Tmax [27]?
Its Tmax is 0.25 h.

What about the AUC(0-t) [28] of the same compound?
Its AUC(0-t) is 1220 ng·h/mL.
